Laboratory results taken from patent US8329686B2, “Isatin analogues and uses therefor” (Washington University, priority 2006, dated 2012).
Like-named read-outs stand apart in the source and are kept apart here. Blank lines part the entries; values can stand above or below the compound they belong to.

What was measured:
caspase 7 = target: T1, caspase 7 (Homo sapiens, UniProt P55210); experiment: Enzyme inhibition assay, caspase 7 (fluorogenic Ac-DEVD-AMC); type: biochemical
T1 construct: purchased Sigma-Aldrich (St. Louis, Mo.)
T1 sequence (P55210 24-198 limits assumed): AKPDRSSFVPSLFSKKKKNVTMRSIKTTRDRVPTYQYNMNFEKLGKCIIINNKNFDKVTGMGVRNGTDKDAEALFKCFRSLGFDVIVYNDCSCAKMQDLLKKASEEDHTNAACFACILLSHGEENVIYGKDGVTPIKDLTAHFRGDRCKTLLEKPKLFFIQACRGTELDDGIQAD
T1 sequence (P55210 207-303 limits assumed): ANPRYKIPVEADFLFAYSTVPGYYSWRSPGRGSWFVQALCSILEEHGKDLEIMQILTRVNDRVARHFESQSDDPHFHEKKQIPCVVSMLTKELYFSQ

caspase-3 [1] = target: T2, caspase-3 (Homo sapiens, UniProt P42574); experiment: Enzyme inhibition assay, caspase 3 (fluorogenic Ac-DEVD-AMC); type: biochemical
T2 construct: purchased Sigma-Aldrich (St. Louis, Mo.)
T2 sequence (P42574 29-175 limits assumed): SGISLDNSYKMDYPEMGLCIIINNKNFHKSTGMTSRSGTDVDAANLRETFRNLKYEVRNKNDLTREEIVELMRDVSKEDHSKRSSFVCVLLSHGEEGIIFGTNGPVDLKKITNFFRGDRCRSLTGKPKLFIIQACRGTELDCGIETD
T2 sequence (P42574 176-277 limits assumed): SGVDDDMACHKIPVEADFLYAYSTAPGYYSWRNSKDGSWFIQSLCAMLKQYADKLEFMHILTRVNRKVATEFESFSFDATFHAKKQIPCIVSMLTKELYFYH

caspase-3 [2] = target: T2, caspase-3; experiment: Reversibility assay (gel filtration); type: biochemical
caspase 6 = target: T3, caspase 6 (Homo sapiens, UniProt P55212); experiment: Enzyme inhibition assay, caspase 6 (fluorogenic Ac-VEID-AMC); type: biochemical
T3 construct: purchased Sigma-Aldrich (St. Louis, Mo.)
T3 sequence (P55212 24-179 limits assumed): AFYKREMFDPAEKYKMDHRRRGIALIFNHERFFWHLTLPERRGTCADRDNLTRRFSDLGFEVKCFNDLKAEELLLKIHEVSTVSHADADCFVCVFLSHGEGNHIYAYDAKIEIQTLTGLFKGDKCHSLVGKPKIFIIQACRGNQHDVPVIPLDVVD
T3 sequence (P55212 194-293 limits assumed): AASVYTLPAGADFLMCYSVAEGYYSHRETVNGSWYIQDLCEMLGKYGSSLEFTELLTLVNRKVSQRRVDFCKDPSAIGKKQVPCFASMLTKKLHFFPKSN

caspase 8 = target: T4, caspase 8 (Homo sapiens, UniProt Q14790); experiment: Enzyme inhibition assay, caspase 8 (fluorogenic Ac-IETD-AMC); type: biochemical
T4 construct: purchased Sigma-Aldrich (St. Louis, Mo.)

caspase 1 = target: T5, caspase 1 (Homo sapiens, UniProt P29466); experiment: Enzyme inhibition assay, caspase 1 (fluorogenic Ac-YVAD-AMC); type: biochemical
T5 construct: purchased BIOMOL Research Laboratories (Plymouth Meeting, Pa.)
T5 sequence (P29466 120-297 limits assumed): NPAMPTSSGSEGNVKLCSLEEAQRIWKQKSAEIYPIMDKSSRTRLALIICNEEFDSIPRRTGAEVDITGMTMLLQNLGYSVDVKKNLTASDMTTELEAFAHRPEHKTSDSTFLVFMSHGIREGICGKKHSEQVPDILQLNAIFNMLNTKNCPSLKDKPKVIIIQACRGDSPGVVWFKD
T5 sequence (P29466 317-404 limits assumed): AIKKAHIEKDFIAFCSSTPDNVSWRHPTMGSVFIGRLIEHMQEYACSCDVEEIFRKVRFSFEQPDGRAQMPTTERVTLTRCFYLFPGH

caspase-3 [3] = target: T2, caspase-3; experiment: Enzyme kinetic studies versus Ac-DEVD-AMC; type: biochemical
Description: Enzyme Kinetic Studies. The inhibition profile for compound 21c was determined for caspase-3 in the assay buffer. The concentration of Ac-DEVD-AMC was varied from 6.25 to 100 μM, and the concentration of 21c was varied from 0 to 20 nM. The kinetic parameters of 21c were obtained by fitting initial-rate data to
[formula] where v is the observed velocity, S is the substrate concentration, Vm is the velocity at saturating substrate, Km is the Michaelis constant of the substrate, I is the inhibitor concentration, and Ki is the dissociation constant of the inhibitor from the E·I complex. The data were analyzed using GraFit 4.0 (Erithacus Software, Staines, U.K.)
Kinetic studies were also conducted in order to determine the mechanism of inhibition of caspase-3 activity by compound 21c.

[4] = Table 4, read-out: IC50 (nM) caspase-7
[5] = Table 4, read-out: IC50 (nM) caspase-3
[6] = Table 5, read-out: IC50 (nM) caspase-7
[7] = Table 5, read-out: IC50 (nM) caspase-3

T4 sequence (Q14790 217-374 limits assumed): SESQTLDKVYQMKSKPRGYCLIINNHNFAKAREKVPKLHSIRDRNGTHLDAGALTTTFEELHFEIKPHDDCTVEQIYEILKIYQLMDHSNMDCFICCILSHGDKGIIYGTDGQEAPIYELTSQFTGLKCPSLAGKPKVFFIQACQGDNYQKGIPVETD
T4 sequence (Q14790 385-479 limits assumed): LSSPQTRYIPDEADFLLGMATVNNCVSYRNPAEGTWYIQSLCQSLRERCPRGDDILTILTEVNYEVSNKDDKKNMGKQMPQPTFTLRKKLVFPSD

- IC50 (caspase 7; [6]): 21 ± 5.6 nM
- melting point: 164.6 to 165.7 °C
- IC50 (caspase-3 [1]; [7]): 8.8 ± 1.4 nM
Compound: O=C1C(=O)N(Cc2ccc(F)cc2)c2ccc(S(=O)(=O)N3CC[C@H]3COc3ccccc3)cc21 [Compound 18e, (S)-1-(4-Fluorobenzyl)-5-(2-phenoxymethyl-azetidine-1-sulfonyl)-1H-indole-2,3-dione]

- IC50 (caspase 7; [6]): 26 ± 5.2 nM
- melting point: 147.1 to 148 °C
- IC50 (caspase-3 [1]; [7]): 9.4 ± 0.3 nM
Compound: O=C1C(=O)N(Cc2ccccc2F)c2ccc(S(=O)(=O)N3CC[C@H]3COc3ccccc3)cc21 [Compound 18f, (S)-1-(2-Fluorobenzyl)-5-(2-phenoxymethyl-azetidine-1-sulfonyl)-1H-indole-2,3-dione]

- IC50 (caspase 7; Table 6, read-out: IC50 (nM) caspase-7): 15.1 ± 1.2 nM
- IC50 (caspase 6; Table 6, read-out: IC50 (nM) caspase-6): > 5000 nM
- IC50 (caspase 8; Table 6, read-out: IC50 (nM) caspase-8): > 50000 nM
- IC50 (caspase 1; Table 6, read-out: IC50 (nM) caspase-1): > 10000 nM
- IC50 (caspase-3 [1]; read-out: IC50 for caspase-3): 3.9 nM
- Ki (caspase-3 [3]; competitive versus Ac-DEVD-AMC, read-out: calculated Ki value): 4.4 nM
- mechanism of inhibition of caspase-3 activity (caspase-3 [3]; versus Ac-DEVD-AMC): competitive inhibition
Compound: COc1ccc(CN2C(=O)C(=O)c3cc(S(=O)(=O)N4CCCC4COc4cccnc4)ccc32)cc1 (stereo not drawn) [Compound 21c, 1-(4-Methoxybenzyl)-5-(2-(pyridin-3-yl-oxymethyl)-pyrrolidine-1-sulfonyl)-1H-indole-2,3-dione]

- IC50 (caspase 7; [6]): 17 ± 3 nM
- melting point: 176.8 to 178.3 °C
- IC50 (caspase-3 [1]; [7]): 10.9 ± 1.4 nM
Compound: O=C1C(=O)N(Cc2ccc(F)nc2)c2ccc(S(=O)(=O)N3CC[C@H]3COc3ccccc3)cc21 [Compound 18g, (S)-1-(6-Fluoropyridin-3-ylmethyl)-5-(2-phenoxymethylazetidine-1-sulfonyl)-1H-indole-2,3-dione]

- IC50 (caspase 7; [6]): 22.7 ± 3.1 nM
- melting point: 144.7 to 146.1 °C
- IC50 (caspase-3 [1]; [7]): 5.8 ± 1 nM
Compound: O=C1C(=O)N(Cc2cccc(F)n2)c2ccc(S(=O)(=O)N3CC[C@H]3COc3ccccc3)cc21 [Compound 18i, (S)-1-(6-Fluoropyridin-2-yl-methyl)-5-(2-phenoxymethylazetidine-1-sulfonyl)-1H-indole-2,3-dione]

Further lines, the compound ahead of its results:

Compound: O=C1C(=O)N(Cc2ccnc(F)c2)c2ccc(S(=O)(=O)N3CCC[C@H]3COc3ccccc3)cc21 [Compound 11h, (S)-1-(2-Fluoro-pyridin-4-yl-methyl)-5-(2-phenoxymethyl-pyrrolidine-1-sulfonyl)-1H-indole-2,3-dione]
- IC50 (caspase 7; [4]): 58 ± 2.8 nM
- melting point: 180.1 to 181.9 °C
- IC50 (caspase-3 [1]; [5]): 21.3 ± 3.2 nM

Compound: CN1C(=O)C(=O)c2cc(S(=O)(=O)N3CC[C@H]3COc3ccccc3)ccc21 [Compound 18a, (S)-1-Methyl-5-(2-phenoxymethyl-azetidine-1-sulfonyl)-1H-indole-2,3-dione]
- IC50 (caspase 7; [6]): 362.5 ± 3.5 nM
- melting point: 173.5 to 174.9 °C
- IC50 (caspase-3 [1]; [7]): 91.7 ± 7.6 nM

Compound: COc1ccc(CN2C(=O)C(=C(C#N)C#N)c3cc(S(=O)(=O)N4CCCC4COc4cccnc4)ccc32)cc1 (stereo not drawn) [Compound 30d, 2-{1-(4-Methoxy-benzyl)-2-oxo-5-[2-(pyridin-3-yloxymethyl)-pyrrolidine-1-sulfonyl]-1,2-dihydro-indol-3-yl-idene}-malononitrile]
- IC50 (caspase 7; IC50 (nM) Casp-7, Table 7): 29.6 ± 1.4 nM
- IC50 (caspase 7; IC50 (nM) Caspase 7, Table 2): 29.6 ± 1.4 nM
- IC50 (caspase 7; read-out: IC50 for caspase-7): 15.1 nM
- caspase 3 activity after incubation with inhibitor (caspase-3 [2]; 3 μM, 1 hour on ice, before gel filtration): fully inhibited
- recovered caspase-3 activity after gel filtration (caspase-3 [2]; elutant compared to untreated elutant A): full caspase 3 activity
- IC50 (caspase 6): 610 ± 113 nM
- IC50 (caspase 6; read-out: IC50 for caspase-6): 515 to 770 nM
- IC50 (caspase 8; Table 2, read-out: IC50 (nM) Caspase 8): > 50000 nM
- IC50 (caspase 8; Table 7, read-out: IC50 (nM) Casp-8): > 50000 nM
- IC50 (caspase 8; read-out: IC50 for caspase-8): > 50000 nM
- IC50 (caspase 1): 3900 nM
- IC50 (caspase 1; IC50 (nM) Casp-1, Table 7): 3900 ± 530 nM
- IC50 (caspase 1; read-out: IC50 for caspase-1): 2700 to 3200 nM
- IC50 (caspase-3 [1]; IC50 (nM) Casp-3, Table 7): 7.8 ± 1.5 nM
- IC50 (caspase-3 [1]; IC50 (nM) Caspase 3, Table 2): 7.8 ± 1.5 nM
- IC50 (caspase-3 [1]; IC50 for caspase-3): 7.8 nM

Compound: O=C1C(=O)N(Cc2cccc(F)n2)c2ccc(S(=O)(=O)N3CCC[C@H]3COc3ccccc3)cc21 [Compound 11i, (S)-1-(6-Fluoro-pyridin-2-yl-methyl)-5-(2-phenoxymethyl-pyrrolidine-1-sulfonyl)-1H-indole-2,3-dione]
- IC50 (caspase 7; [4]): 22.2 ± 4 nM
- melting point: 128.6 to 129.4 °C
- IC50 (caspase-3 [1]; [5]): 9.1 ± 1.8 nM

Compound: COc1ccc(CN2C(=O)C(=O)c3cc(S(=O)(=O)N4CC[C@H]4COc4ccccc4)ccc32)cc1 [Compound 18c, (S)-1-(4-Methoxybenzyl)-5-(2-phenoxymethyl-azetidine-1-sulfonyl)-1H-indole-2,3-dione]
- IC50 (caspase 7; [6]): 23.2 ± 3 nM
- melting point: 159.8 to 161.5 °C
- IC50 (caspase-3 [1]; [7]): 8.4 ± 1.2 nM

Compound: O=C1Nc2ccc(S(=O)(=O)N3CC[C@H]3COc3ccccc3)cc2C1=O [Compound 17, (S)-5-(2-Phenoxymethyl-azetidine-1-sulfonyl)-1H-indole-2,3-dione]
- IC50 (caspase 7; [6]): 1350 ± 141 nM
- fold less potent for inhibiting caspase-7 (caspase 7; relative to the corresponding pyrrolidine analogue 10): > 2 fold
- melting point: 173.2 to 174.5 °C
- IC50 (caspase-3 [1]; [7]): 287 ± 24.7 nM

Compound: O=C1C(=O)N(Cc2ccccc2)c2ccc(S(=O)(=O)N3CC[C@H]3COc3ccccc3)cc21 [Compound 18b, (S)-1-Benzyl-5-(2-phenoxymethyl-azetidine-1-sulfonyl)-1H-indole-2,3-dione]
- IC50 (caspase 7; [6]): 29.5 ± 4.9 nM
- melting point: 157.1 to 158.9 °C
- IC50 (caspase-3 [1]; [7]): 9.7 ± 1.6 nM
